{"source": "patent US9670512B2", "about": "“Methods and compositions for producing fatty alcohols or fatty aldehydes” (REG Life Sciences, LLC, priority 2008, dated 2017)", "key": {"[1]": {"target": "T1, PCC7942_orf1594 protein (acyl-ACP reductase) (Synechococcus elongatus, UniProt Q54765)", "T1 construct": "His-tag (C); made in house; host or cells: E. coli BL21 (DE3)", "T1 sequence (Q54765 1-341)": "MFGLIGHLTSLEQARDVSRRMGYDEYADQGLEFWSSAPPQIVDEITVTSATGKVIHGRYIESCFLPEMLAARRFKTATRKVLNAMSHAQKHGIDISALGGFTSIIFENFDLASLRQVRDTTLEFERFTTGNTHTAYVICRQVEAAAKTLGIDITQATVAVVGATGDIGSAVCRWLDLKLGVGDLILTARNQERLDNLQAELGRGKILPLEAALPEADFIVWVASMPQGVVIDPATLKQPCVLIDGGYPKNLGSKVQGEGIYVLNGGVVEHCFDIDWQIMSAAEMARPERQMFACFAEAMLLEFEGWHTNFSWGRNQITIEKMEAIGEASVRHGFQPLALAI", "assay": "acyl-ACP or acyl-CoA reductase enzyme assay with purified PCC7942_orf1594 protein", "assay_type": "biochemical, Synechococcus elongatus PCC7942", "conditions": "for reduction of acyl substrate to fatty aldehyde by PCC7942_orf1594: GC/MS detection of octadecanal/octadecenal, NADPH and divalent cation required", "method": "The genomic DNA encoding S. elongatus […] orf1594 (SEQ ID NO:65) was cloned into the NcoI and XhoI sites of vector pET-28b under the control of the T7 promoter. The resulting PCC7942_orf1594 protein contained a C-terminal His-tag. An E. coli BL21 strain (DE3) (Invitrogen) was transformed with the plasmid and PCC7942_orf1594 protein was expressed and purified as described in Example 22. The protein solution was stored in the following buffer: 50 mM sodium phosphate, pH 7.5, 100 mM NaCl, 1 mM THP, 10% glycerol. Protein concentration was determined using the Bradford assay (Biorad). 2 mg/mL of PCC7942_orf1594 protein was obtained.\nTo test PCC7942_orf1594 protein for acyl-ACP or acyl-CoA reductase activity, the following enzyme assays were set-up. 100 μL reactions were set-up in 50 mM Tris-HCl buffer at pH 7.5 with the following components at their respective final concentrations: 10 μM of purified PCC7942_orf1594 protein, 0.01-1 mM acyl-CoA or acyl-ACP, 2 mM MgCl2, 0.2-2 mM NADPH. The reactions were incubated for 1 h at 37° C. and where stopped by adding 100 μL ethyl acetate (containing 5 mg/l 1-octadecene as internal standard). Samples were vortexed for 15 min and centrifuged at max speed for 3 min for phase separation. 80 μL of the top layer were transferred into GC glass vials and analyzed by GC/MS as described in Example 26. The amount of aldehyde formed was calculated based on the internal standard."}, "[2]": {"target": "T2, Npun02004178 protein (fatty aldehyde decarbonylase) (Nostoc punctiforme, UniProt B2J1M1)", "T2 construct": "His-tag (N); made in house; host or cells: E. coli BL21 (DE3)", "T2 sequence (B2J1M1 1-232)": "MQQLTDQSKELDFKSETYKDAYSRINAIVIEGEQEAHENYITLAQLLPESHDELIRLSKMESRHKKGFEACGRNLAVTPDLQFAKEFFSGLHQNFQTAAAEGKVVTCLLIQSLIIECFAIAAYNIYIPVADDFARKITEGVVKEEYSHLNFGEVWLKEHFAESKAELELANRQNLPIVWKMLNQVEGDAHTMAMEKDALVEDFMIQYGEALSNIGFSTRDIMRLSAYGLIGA", "assay": "in-vitro fatty aldehyde decarbonylase assay with purified Npun02004178 protein", "assay_type": "biochemical, Nostoc punctiforme PCC73102", "conditions": "200 μM octadecanal, 30 μM Npun02004178, spinach ferredoxin, ferredoxin reductase and NADPH; 37° C., 2 h", "method": "The genomic DNA encoding N. punctiforme PCC73102 Npun02004178 (SEQ ID NO:5) was cloned into the NdeI and XhoI sites of vector pET-15b under the control of the T7 promoter. The resulting Npun02004178 protein contained an N-terminal His-tag. An E. coli BL21 strain (DE3) (Invitrogen) was transformed with the plasmid by routine chemical transformation techniques. Protein expression was carried out by first inoculating a colony of the E. coli strain in 5 mL of LB media supplemented with 100 mg/L of carbenicillin and shaken overnight at 37° C. to produce a starter culture. This starter cultures was used to inoculate 0.5 L of LB media supplemented with 100 mg/L of carbenecillin. […] Protein concentration was determined using the Bradford assay (Biorad). […]\nTo test Npun02004178 protein for decarbonylation activity, the following enzyme assays were set-up. […] Samples were analyzed by GC/MS using the following parameters: run time: 13.13 min; column: HP-5-MS Part No. 19091S-433E (length of 30 meters; I.D.: 0.25 mm narrowbore; film: 0.25 iM); inject: 1 ii Agilent 6850 inlet; inlet: 300 C splitless; carrier gas: helium; flow: 1.3 mL/min; oven temp: 75° C. hold 5 min, 320 at 40° C./min, 320 hold 2 min; det: Agilent 5975B VL MSD; det. temp: 330° C.; scan: 50-550 M/Z. Heptadecane from Sigma was used as an authentic reference for determining compound retention time and fragmentation pattern. […]"}}}
{"compound": "octadecenoyl-ACP", "values": [{"measurement": "reduction of acyl substrate to fatty aldehyde by PCC7942_orf1594", "setting": "[1]", "result": "also able to reduce"}]}
{"compound": "CCCCCCCCCCCCCCCCCC=O", "note": "[octadecanal]", "values": [{"measurement": "in-vitro decarbonylation to heptadecane", "setting": "[2]", "result": "in-vitro conversion of octadecanal to heptadecane was observed"}]}
{"compound": "NC(=O)C1=CN([C@@H]2O[C@H](COP(=O)(O)OP(=O)(O)OC[C@H]3O[C@@H](n4cnc5c(N)ncnc54)[C@H](OP(=O)(O)O)[C@@H]3O)[C@@H](O)[C@H]2O)C=CC1", "note": "[NADPH, reference compound]", "values": [{"measurement": "Km", "setting": "[1]; in the presence of 0.5 mM octadecanoyl-CoA, read-out: Km value for NADPH", "result": "400 ± 80", "unit": "µM"}]}
{"compound": "octadecenoyl-CoA", "values": [{"measurement": "reduction of acyl substrate to fatty aldehyde by PCC7942_orf1594", "setting": "[1]", "result": "also able to reduce"}]}
{"compound": "CCCCCCCCCCCCCCCCCC(=O)SCCNC(=O)CCNC(=O)[C@H](O)C(C)(C)COP(=O)(O)OP(=O)(O)OC[C@H]1O[C@@H](n2cnc3c(N)ncnc32)[C@H](O)[C@@H]1OP(=O)(O)O", "note": "[octadecanoyl-CoA]", "values": [{"measurement": "reduction of acyl substrate to fatty aldehyde by PCC7942_orf1594", "setting": "[1]", "result": "able to reduce octadecanoyl-CoA to octadecanal"}]}
{"compound": "NC(=O)C1=CN([C@@H]2O[C@H](COP(=O)(O)OP(=O)(O)OC[C@H]3O[C@@H](n4cnc5c(N)ncnc54)[C@H](O)[C@@H]3O)[C@@H](O)[C@H]2O)C=CC1", "note": "[NADH, reference compound]", "values": [{"measurement": "support of reductase activity as electron donor", "setting": "[1]; octadecanoyl-CoA as substrate, Mg2+", "result": "did not support reductase activity"}]}
